According to patent publication US10189854B2, “Substituted pyrimidine compounds” (Grünenthal GmbH, priority 2014, dated 2019):

Target: human PDE4B1 (Homo sapiens (Human), UniProt Q07343)
Assay: TR-FRET assay using the LANCE Ultra cAMP kit to determine the activity of hPDE4B1
Type: biochemical
Details: IC50 inhibition of PDE4B, mean
Method in brief: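 Recombinant human PDE4B1 (Sf9-expressed, 0.96 U) incubated with compound and 500 nM cAMP in 50 mM Tris-HCl, 50 mM MgCl2, 5 mM DTT, pH 8.5, 30 min at room temperature. Residual cAMP read by TR-FRET (665/620 nm ratio) after IBMX stop. IC50 from ten-concentration curves as % inhibition of control.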

Sequence of human PDE4B1 (Q07343 whole entry): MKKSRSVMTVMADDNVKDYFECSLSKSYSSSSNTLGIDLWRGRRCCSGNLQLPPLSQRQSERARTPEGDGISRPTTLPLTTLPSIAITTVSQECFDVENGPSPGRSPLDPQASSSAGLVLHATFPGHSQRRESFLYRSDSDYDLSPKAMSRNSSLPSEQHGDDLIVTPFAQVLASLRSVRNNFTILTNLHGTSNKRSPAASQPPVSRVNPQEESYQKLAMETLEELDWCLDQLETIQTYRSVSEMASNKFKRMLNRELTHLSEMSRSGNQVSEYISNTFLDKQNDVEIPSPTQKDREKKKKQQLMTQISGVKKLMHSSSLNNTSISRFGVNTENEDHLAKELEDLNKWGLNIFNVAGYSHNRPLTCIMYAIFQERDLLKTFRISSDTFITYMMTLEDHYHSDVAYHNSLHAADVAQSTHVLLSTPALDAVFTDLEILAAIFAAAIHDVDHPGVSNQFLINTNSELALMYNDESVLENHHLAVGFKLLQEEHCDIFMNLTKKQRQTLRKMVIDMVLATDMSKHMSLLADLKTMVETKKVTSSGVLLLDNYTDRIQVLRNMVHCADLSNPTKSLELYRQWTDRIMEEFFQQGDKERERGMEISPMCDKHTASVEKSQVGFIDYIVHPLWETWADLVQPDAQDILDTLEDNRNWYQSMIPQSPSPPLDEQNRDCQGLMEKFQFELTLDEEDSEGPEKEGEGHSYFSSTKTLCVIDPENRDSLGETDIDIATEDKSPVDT

Row | SMILES | IC50 [µM]
1 | CC(=O)Oc1cccc(-c2cnc(N3CC4(CC4)c4ccc(C(=O)N(C)CCO)cc43)nc2)c1 [Compound 358, Acetic acid [3-[2-[6-[(2-hydroxy-ethyl)-methyl-carbamoyl]-spiro[1,2-dihydro-indole-3,1′-cyclopropane]-1-yl]-pyrimidin-5-yl]-phenyl]ester] | < 0.1
2 | CN(CCO)C(=O)c1ccc2c(c1)N(c1ncc(-c3cc(N4CCCC4)ccc3F)cn1)CC21CC1 [Compound 359, 1-[5-(2-Fluoro-5-pyrrolidin-1-yl-phenyl)-pyrimidin-2-yl]-N-(2-hydroxy-ethyl)-N-methyl-spiro[1,2-dihydro-indole-3,1′-cyclopropane]-6-carboxylic acid amide] | < 0.1
3 | CNC(=O)CN(C)C(=O)c1ccc2c(c1)N(c1ncc(-c3cc(C)ccn3)cn1)CC21CC1 [Compound 360, N-Methyl-N-(methylcarbamoyl-methyl)-1-[5-(4-methyl-pyridin-2-yl)-pyrimidin-2-yl]-spiro[1,2-dihydro-indole-3,1′-cyclopropane]-6-carboxylic acid amide] | < 0.1
4 | COc1cc(C2CC2)cc(-c2cnc(N3CC4(CC4)c4ccc(C(=O)N(C)CCO)cc43)nc2)n1 [Compound 361, 1′-(5-(4-cyclopropyl-6-methoxypyridin-2-yl)pyrimidin-2-yl)-N-(2-hydroxyethyl)-N-methylspiro[cyclopropane-1,3′-indoline]-6′-carboxamide] | 0.1 to 1
5 | O=C(c1ccc2c(c1)N(c1ncc(-c3ccccc3F)cn1)CC21CC1)N1CCO[C@@H](CO)C1 [Compound 362, [1-[5-(2-Fluorophenyl)-pyrimidin-2-yl]-spiro[1,2-dihydro-indole-3,1′-cyclopropane]-6-yl]-[(2R)-2-(hydroxymethyl)-morpholin-4-yl]-methanone] | < 0.1
6 | CN(CCO)C(=O)c1ccc2c(c1)N(c1ncc(-c3cc(C4(O)CC4)ccc3F)cn1)CC21CC1 [Compound 363, 1-[5-[2-Fluoro-5-(1-hydroxy-cyclopropyl)-phenyl]-pyrimidin-2-yl]-N-(2-hydroxy-ethyl)-N-methyl-spiro[1,2-dihydro-indole-3,1′-cyclopropane]-6-carboxylic acid amide] | < 0.1
7 | CN(CCO)C(=O)c1ccc2c(c1)N(c1ncc(-c3cc(F)ccc3F)cn1)CC21CC1 [Compound 364, 1-[5-(2,5-Difluoro-phenyl)-pyrimidin-2-yl]-N-(2-hydroxy-ethyl)-N-methyl-spiro[1,2-dihydro-indole-3,1′-cyclopropane]-6-carboxylic acid amide] | < 0.1
8 | CN(CCO)C(=O)c1ccc2c(c1)N(c1ncc(-c3cc(C(F)(F)F)ccc3F)cn1)CC21CC1 [Compound 365, 1-[5-[2-Fluoro-5-(trifluoromethyl)-phenyl]-pyrimidin-2-yl]-N-(2-hydroxy-ethyl)-N-methyl-spiro[1,2-dihydro-indole-3,1′-cyclopropane]-6-carboxylic acid amide] | < 0.1
